Reference: US11186567B2, “AMPA receptor potentiators” (UNIVERSITY COLLEGE CARDIFF CONSULTANTS LIMITED, priority 2017, dated 2021)

Key:
[1] = Intrinsic clearance (CLi), rat; format: in vitro ADME; settings: 0.5 mg/mL microsomes, 2 μM test article, 2 mM NADPH, 37° C.
Description: (§1) For example, compounds of the invention preferably have a CLi of less than 100 μL/min/mg in rat and human microsomes. The CLi can be measured using known methods, such as those illustrated in the Examples.
(§2) The in-vitro intrinsic clearance of the compounds was measured in rat and human […] using the following assay.
(§3) 5 μL microsomes (20 mg/ml, Corning BV) diluted into 95 μL PBS (pH 7) containing 0.2% DMSO and 4 μM test article were incubated at 37° C. shaking at 1000 rpm prior the addition of 100 μL of pre-warmed 4 mM NADPH in PBS (final concentrations: 0.5 mg/mL microsomes, 2 μM test article, 0.1% DMSO and 2 mM NADPH). After mixing thoroughly the T=0 sample (40 μL) was immediately quenched into ice cold methanol containing 2 μM internal standard (Carbemazapine). Three further samples were quenched in the same way at 3, 9 and 30 min. Samples were incubated on ice for 30 min before centrifugation at 4000 rpm+ for […]. The supernatant was analysed via LCMS and the test article:carbemazapine peak area ratios calculated to determine the rate of substrate depletion.

[2] = Intrinsic clearance (CLi), human; format: in vitro ADME; settings: 0.5 mg/mL microsomes, 2 μM test article, 2 mM NADPH, 37° C.
Description: as §1, §2, §3

Compound	CLi Rat [1]	CLi human [2]
COCc1c(C)c(C(F)(F)F)nn1-c1ccc(CN2CCCC2=O)cc1 [Example 5, 1-[[4-[5-(Methoxymethyl)-4-methyl-3-(trifluoromethyl)pyrazol-1-yl]phenyl]methyl]pyrrolidin-2-one]	87.4 µL/min/mg	47.4 µL/min/mg
Cc1c(C(F)(F)F)nn(-c2ccc(CN3CCCC3=O)cc2)c1C(C)O (centres unmarked) [Example 7, 1-[[4-[5-(1-Hydroxyethyl)-4-methyl-3-(trifluoromethyl)pyrazol-1-yl]phenyl]methyl]pyrrolidin-2-one]	37.7 µL/min/mg	31.1 µL/min/mg
Cc1c(Cl)c(C(F)(F)F)nn1-c1ccc(CN2CCCC2=O)cc1 [Comparative Example, reference compound]	878 µL/min/mg	71 µL/min/mg
Cc1c(CO)c(C(F)(F)F)nn1-c1ccc(CN2CCCC2=O)cc1 [Example 1, 1-[[4-[4-(Hydroxymethyl)-5-methyl-3-(trifluoromethyl)pyrazol-1-yl]phenyl]methyl]pyrrolidin-2-one]	8.4 µL/min/mg	4.3 µL/min/mg
CC(C)c1c(CO)c(C(F)(F)F)nn1-c1ccc(CN2CCCC2=O)cc1 [Example 3, 1-[[4-[4-(Hydroxymethyl)-5-isopropyl-3-(trifluoromethyl)pyrazol-1-yl]phenyl]methyl]pyrrolidin-2-one]	2.2 µL/min/mg	7.9 µL/min/mg
CCc1c(CO)c(C(F)(F)F)nn1-c1ccc(CN2CCCC2=O)cc1 [Example 2, 1-[[4-[5-Ethyl-4-(hydroxymethyl)-3-(trifluoromethyl)pyrazol-1-yl]phenyl]methyl]pyrrolidin-2-one]	3.7 µL/min/mg	2.6 µL/min/mg
Cc1c(C(F)(F)F)nn(-c2ccc(CN3CCCC3=O)cc2)c1C#N [Example 6, 4-Methyl-2-[4-[(2-oxopyrrolidin-1-yl)methyl]phenyl]-5-(trifluoromethyl)pyrazole-3-carbonitrile]	70.2 µL/min/mg	6.2 µL/min/mg
